{
  "source": "the supplement of paper PMC10307832",
  "experiment_in_all_cases": "relative viability (nuclei count vs DMSO), 5 days (fraction); higher = more cells survive",
  "key": {"[1]": {"compound": "CC1CC(=O)N(C2=CN=C(N=C2N1C3CCCC3)NC4=C(C=C(C=C4)C(=O)NC5CCN(CC5)C)OC)C [NPK76-II-72-1] + C[C@@H](Oc1cc(-c2cnn(C3CCNCC3)c2)cnc1N)c1c(Cl)ccc(F)c1Cl [Crizotinib] (partner 1 µM)", "summary_of_the_method": "(§1)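 For relative viability, nuclei counts in treated wells were divided by those in vehicle wells. Lung cancer cell lines had been pin-tool dosed in 1536-well plates the day after seeding and cultured for 5 days, then fixed and stained in one step (final 0.05% Triton X-100, 1% formaldehyde, 1 ug/ml Hoechst) and imaged at 4×. Doses were one drug alone or a fixed anchor-drug dose plus five library-drug doses (not always all listed) in √10 steps, and values are duplicate-plate medians.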"}, "[2]": {"compound": "CC[C@@H]1C(=O)N(C)c2cnc(Nc3ccc(C(=O)NC4CCN(C)CC4)cc3OC)nc2N1C1CCCC1 [BI-2536] + Nc1nc2[nH]cc(CCc3ccc(C(=O)N[C@@H](CCC(=O)O)C(=O)O)cc3)c2c(=O)[nH]1 [Pemetrexed] (partner 0.2 µM)", "summary_of_the_method": "as §1"}, "[3]": {"compound": "CC1CC(=O)N(C2=CN=C(N=C2N1C3CCCC3)NC4=C(C=C(C=C4)C(=O)NC5CCN(CC5)C)OC)C [NPK76-II-72-1] + CC(=O)Nc1cccc(-n2c(=O)n(C3CC3)c(=O)c3c(Nc4ccc(I)cc4F)n(C)c(=O)c(C)c32)c1 [Trametinib] (partner 0.02 µM)", "summary_of_the_method": "as §1"}, "[4]": {"compound": "CC[C@@H]1C(=O)N(C)c2cnc(Nc3ccc(C(=O)NC4CCN(C)CC4)cc3OC)nc2N1C1CCCC1 [BI-2536] + CC(C)C[C@H](NC(=O)[C@H](Cc1ccccc1)NC(=O)c1cnccn1)B(O)O [Bortezomib] (partner 0.002 µM)", "summary_of_the_method": "as §1"}},
  "data": [
    {"cell line": "UMC-11", "values": [
      {"measurement": "relative viability", "setting": "[1]; first compound 0.01 µM", "result": 0.622},
      {"measurement": "relative viability", "setting": "[1]; first compound 0.03162 µM", "result": 0.574},
      {"measurement": "relative viability", "setting": "[1]; first compound 0.1 µM", "result": 0.669},
      {"measurement": "relative viability", "setting": "[1]; first compound 0.3162 µM", "result": 0.532},
      {"measurement": "relative viability", "setting": "[1]; first compound 1 µM", "result": 0.707},
      {"measurement": "relative viability", "setting": "[2]; first compound 0.01 µM", "result": 0.8},
      {"measurement": "relative viability", "setting": "[2]; first compound 0.03162 µM", "result": 0.57},
      {"measurement": "relative viability", "setting": "[2]; first compound 0.1 µM", "result": 0.242},
      {"measurement": "relative viability", "setting": "[2]; first compound 0.3162 µM", "result": 0.194},
      {"measurement": "relative viability", "setting": "[2]; first compound 1 µM", "result": 0.184},
      {"measurement": "relative viability", "setting": "[3]; first compound 0.01 µM", "result": 0.692},
      {"measurement": "relative viability", "setting": "[3]; first compound 0.03162 µM", "result": 0.629},
      {"measurement": "relative viability", "setting": "[3]; first compound 0.1 µM", "result": 0.75},
      {"measurement": "relative viability", "setting": "[3]; first compound 0.3162 µM", "result": 0.484},
      {"measurement": "relative viability", "setting": "[3]; first compound 1 µM", "result": 0.812},
      {"measurement": "relative viability", "setting": "[4]; first compound 0.01 µM", "result": 0.601},
      {"measurement": "relative viability", "setting": "[4]; first compound 0.03162 µM", "result": 0.414},
      {"measurement": "relative viability", "setting": "[4]; first compound 0.1 µM", "result": 0.175},
      {"measurement": "relative viability", "setting": "[4]; first compound 0.3162 µM", "result": 0.134},
      {"measurement": "relative viability", "setting": "[4]; first compound 1 µM", "result": 0.104}
    ]}
  ]
}
